According to patent US20240279240A1, “HETEROCYCLIC DERIVATIVES AS JANUS KINASE INHIBITORS” (CHIESI FARMACEUTICI S.P.A., priority 2021, published 2024):

What was measured:
JAK 1 = JAK 1 (Homo sapiens, UniProt P23458); assay: Biochemical potency on JAK1, TR-FRET LANCE Ultra kinase assay (examples 1-99); conditions: ATP at Km (20 μM), read-out: JAK1 inhibitory activity (pIC50 class) (converted)
Method in brief: (§1)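 Each JAK isoform (human) was tested separately in a peptide-phosphorylation TR-FRET assay at ATP ≈ Km. Eleven compound concentrations, top 20 μM, 5-fold spacing. Values are IC50s from normalized-response curve fits.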

JAK 2 = JAK 2 (Homo sapiens, UniProt O60674); assay: Biochemical potency on JAK2, TR-FRET LANCE Ultra kinase assay (examples 1-99); conditions: ATP at Km (0.7 μM), read-out: JAK2 inhibitory activity (pIC50 class) (converted)
Sequence of JAK 2 (O60674 whole entry): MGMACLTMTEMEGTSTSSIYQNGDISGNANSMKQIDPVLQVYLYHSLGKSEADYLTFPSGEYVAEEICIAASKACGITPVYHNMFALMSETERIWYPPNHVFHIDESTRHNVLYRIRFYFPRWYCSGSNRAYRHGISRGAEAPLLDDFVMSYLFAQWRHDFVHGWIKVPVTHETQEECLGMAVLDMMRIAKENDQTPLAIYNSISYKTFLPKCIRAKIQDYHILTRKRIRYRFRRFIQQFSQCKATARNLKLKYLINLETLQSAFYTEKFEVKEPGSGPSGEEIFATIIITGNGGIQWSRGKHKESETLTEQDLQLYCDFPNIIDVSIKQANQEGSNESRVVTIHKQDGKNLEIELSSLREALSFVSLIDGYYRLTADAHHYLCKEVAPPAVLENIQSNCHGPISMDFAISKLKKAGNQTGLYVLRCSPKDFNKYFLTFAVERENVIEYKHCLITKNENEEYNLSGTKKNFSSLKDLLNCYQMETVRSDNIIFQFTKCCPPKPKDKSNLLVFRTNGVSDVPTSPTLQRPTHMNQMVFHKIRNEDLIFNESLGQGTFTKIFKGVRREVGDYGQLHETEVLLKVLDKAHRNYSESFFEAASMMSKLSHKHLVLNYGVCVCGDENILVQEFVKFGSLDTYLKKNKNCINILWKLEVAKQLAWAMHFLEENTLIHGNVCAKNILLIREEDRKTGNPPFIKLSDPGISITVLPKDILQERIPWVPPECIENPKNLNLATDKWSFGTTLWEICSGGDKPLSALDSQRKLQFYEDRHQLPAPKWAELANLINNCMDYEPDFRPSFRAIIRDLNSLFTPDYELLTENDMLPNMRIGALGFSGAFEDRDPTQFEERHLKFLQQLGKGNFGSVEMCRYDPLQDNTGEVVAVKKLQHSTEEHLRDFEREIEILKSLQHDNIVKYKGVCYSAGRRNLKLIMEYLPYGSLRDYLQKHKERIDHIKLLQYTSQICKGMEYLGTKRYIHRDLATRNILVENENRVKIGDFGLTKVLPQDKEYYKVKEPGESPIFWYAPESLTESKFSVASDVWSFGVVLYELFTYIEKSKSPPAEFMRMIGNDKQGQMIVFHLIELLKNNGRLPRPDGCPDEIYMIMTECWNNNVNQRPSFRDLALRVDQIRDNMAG
Method in brief: as §1

JAK 3 = molecular target: T1, JAK 3 (Homo sapiens, UniProt P52333); assay: Biochemical potency on JAK3, TR-FRET LANCE Ultra kinase assay (examples 1-99); conditions: ATP at Km (0.2 μM), read-out: JAK3 inhibitory activity (pIC50 class) (converted)
T1 sequence (P52333 1-1124): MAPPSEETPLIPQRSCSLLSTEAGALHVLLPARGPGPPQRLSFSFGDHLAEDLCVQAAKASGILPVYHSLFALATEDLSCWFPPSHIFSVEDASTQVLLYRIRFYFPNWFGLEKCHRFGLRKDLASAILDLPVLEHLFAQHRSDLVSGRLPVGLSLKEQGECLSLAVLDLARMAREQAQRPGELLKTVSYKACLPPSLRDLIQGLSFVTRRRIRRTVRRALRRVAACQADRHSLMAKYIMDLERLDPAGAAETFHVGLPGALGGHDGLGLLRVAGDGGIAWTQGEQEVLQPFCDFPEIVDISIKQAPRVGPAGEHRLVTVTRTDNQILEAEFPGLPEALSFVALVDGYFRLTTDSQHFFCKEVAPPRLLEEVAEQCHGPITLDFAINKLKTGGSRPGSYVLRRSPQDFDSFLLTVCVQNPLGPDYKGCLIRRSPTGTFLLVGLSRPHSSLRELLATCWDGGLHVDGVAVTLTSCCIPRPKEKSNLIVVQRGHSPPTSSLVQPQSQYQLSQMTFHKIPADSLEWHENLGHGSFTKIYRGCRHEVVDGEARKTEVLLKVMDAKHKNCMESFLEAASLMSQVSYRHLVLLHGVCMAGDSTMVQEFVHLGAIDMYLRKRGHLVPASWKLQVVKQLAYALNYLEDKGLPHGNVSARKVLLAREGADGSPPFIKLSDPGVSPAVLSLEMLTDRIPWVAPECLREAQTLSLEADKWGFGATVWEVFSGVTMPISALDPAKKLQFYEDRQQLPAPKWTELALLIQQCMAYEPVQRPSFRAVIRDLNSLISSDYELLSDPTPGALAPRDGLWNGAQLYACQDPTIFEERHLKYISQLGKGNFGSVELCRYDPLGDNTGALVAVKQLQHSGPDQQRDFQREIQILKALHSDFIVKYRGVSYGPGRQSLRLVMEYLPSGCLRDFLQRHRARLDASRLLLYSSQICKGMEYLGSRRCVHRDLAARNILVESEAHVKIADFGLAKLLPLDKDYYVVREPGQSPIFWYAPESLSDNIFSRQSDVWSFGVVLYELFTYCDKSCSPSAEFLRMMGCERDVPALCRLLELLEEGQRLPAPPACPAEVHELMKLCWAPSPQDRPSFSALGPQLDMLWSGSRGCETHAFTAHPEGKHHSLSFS
Method in brief: as §1

TYK2 = TYK2 (Homo sapiens, UniProt P29597); assay: Biochemical potency on Tyk2, TR-FRET LANCE Ultra kinase assay (examples 1-99); conditions: ATP at Km (12 μM), read-out: Tyk2 inhibitory activity (pIC50 class) (converted)
Sequence of TYK2 (P29597 whole entry): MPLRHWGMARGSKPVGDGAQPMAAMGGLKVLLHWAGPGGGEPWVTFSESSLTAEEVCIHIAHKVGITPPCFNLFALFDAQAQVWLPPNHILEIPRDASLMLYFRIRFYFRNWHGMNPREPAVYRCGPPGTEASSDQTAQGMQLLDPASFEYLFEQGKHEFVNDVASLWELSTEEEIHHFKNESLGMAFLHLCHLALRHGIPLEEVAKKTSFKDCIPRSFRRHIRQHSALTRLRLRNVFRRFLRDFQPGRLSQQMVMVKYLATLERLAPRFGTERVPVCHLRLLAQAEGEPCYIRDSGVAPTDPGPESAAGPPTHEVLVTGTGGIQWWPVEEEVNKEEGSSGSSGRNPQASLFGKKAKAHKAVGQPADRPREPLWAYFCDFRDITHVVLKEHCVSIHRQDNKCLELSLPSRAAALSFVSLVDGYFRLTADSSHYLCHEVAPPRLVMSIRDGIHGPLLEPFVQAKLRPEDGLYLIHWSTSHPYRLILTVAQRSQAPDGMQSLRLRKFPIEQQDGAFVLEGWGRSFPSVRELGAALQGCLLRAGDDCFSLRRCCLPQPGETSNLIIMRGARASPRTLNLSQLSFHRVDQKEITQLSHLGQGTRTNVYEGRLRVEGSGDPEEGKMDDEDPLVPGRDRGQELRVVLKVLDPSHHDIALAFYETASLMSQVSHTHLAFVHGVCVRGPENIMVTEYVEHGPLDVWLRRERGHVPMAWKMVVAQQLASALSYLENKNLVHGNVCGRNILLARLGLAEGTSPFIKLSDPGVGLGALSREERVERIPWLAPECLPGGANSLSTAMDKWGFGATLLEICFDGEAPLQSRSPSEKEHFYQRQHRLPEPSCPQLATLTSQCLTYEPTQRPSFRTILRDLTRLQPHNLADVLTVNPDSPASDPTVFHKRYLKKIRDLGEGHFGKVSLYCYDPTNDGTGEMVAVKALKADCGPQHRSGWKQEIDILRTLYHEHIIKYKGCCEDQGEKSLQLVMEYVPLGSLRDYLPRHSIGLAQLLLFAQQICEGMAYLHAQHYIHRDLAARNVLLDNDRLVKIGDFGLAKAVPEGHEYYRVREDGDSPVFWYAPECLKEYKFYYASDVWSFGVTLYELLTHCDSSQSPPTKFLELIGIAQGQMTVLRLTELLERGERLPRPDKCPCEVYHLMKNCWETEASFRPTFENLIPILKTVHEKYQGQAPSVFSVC
Method in brief: as §1

Sequence of JAK 1 (P23458 whole entry, canonical isoform): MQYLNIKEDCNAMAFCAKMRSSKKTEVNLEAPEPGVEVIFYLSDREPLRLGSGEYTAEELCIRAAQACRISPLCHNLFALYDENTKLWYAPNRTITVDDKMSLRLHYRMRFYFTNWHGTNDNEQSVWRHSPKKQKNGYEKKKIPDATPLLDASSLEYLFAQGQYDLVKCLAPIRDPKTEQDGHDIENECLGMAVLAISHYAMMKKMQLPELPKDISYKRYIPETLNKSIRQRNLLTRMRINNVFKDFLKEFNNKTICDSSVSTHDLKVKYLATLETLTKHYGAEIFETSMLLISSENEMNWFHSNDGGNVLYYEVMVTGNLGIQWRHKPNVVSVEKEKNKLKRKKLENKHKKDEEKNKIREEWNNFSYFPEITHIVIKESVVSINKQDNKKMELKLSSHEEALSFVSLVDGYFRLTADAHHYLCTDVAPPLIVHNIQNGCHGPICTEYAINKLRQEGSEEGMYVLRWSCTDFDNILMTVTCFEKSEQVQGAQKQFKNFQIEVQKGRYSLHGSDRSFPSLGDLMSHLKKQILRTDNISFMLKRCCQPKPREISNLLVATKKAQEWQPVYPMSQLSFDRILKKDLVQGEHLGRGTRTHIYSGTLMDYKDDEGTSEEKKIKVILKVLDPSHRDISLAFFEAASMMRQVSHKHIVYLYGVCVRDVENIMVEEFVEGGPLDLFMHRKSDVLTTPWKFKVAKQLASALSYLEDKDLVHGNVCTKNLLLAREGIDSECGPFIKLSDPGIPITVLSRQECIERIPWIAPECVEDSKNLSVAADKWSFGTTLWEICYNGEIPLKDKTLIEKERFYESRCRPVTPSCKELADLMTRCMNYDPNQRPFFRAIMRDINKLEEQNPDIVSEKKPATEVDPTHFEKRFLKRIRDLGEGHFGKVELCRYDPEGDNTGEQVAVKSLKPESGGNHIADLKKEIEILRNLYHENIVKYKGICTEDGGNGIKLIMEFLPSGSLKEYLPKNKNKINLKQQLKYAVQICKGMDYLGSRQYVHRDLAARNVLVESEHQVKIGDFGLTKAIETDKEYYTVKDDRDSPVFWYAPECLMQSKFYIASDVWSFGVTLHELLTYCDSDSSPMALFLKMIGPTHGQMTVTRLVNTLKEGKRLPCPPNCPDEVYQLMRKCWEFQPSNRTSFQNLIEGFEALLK

Row | SMILES | IC50 (JAK 1) [nM] | IC50 (JAK 2) [nM] | IC50 (JAK 3) [nM] | IC50 (TYK2) [nM]
1 | COc1ccc(S(C)(=O)=O)cc1-n1nc(C(=O)NCCCN2CCOCC2)c2cnc(-c3cnn4cccnc34)cc21 [Example 84, 1-(2-methoxy-5-(methylsulfonyl)phenyl)-N-(3-morpholinopropyl)-6-(pyrazolo[1,5-a]pyrimidin-3-yl)-1H-pyrazolo[4,3-c]pyridine-3-carboxamide] | 5.01 to 50.1 | 5.01 to 50.1 | 5.01 to 50.1 | > 50.1
2 | CNc1nn(-c2cc(S(C)(=O)=O)ccc2OC)c2cc(-c3cnn4cccnc34)ncc12 [Example 85, 1-(2-methoxy-5-(methylsulfonyl)phenyl)-N-methyl-6-(pyrazolo[1,5-a]pyrimidin-3-yl)-1H-pyrazolo[4,3-c]pyridin-3-amine] | > 50.1 | ≤ 5.01 | 5.01 to 50.1 | > 50.1
3 | COc1ccc(NS(C)(=O)=O)cc1-n1nc(NCCN(C)C)c2cnc(-c3cnn4cccnc34)cc21 [Example 86, N-(3-(3-((2-(dimethylamino)ethyl)amino)-6-(pyrazolo[1,5-a]pyrimidin-3-yl)-1H-pyrazolo[4,3-c]pyridin-1-yl)-4-methoxyphenyl)methanesulfonamide] | > 50.1 | 5.01 to 50.1 | 5.01 to 50.1 | > 50.1
4 | CNCC(=O)Nc1nn(-c2cc(Cl)ccc2OC)c2cc(-c3cnn4cccnc34)ncc12 [Example 87, N-(1-(5-chloro-2-methoxyphenyl)-6-(pyrazolo[1,5-a]pyrimidin-3-yl)-1H-pyrazolo[4,3-c]pyridin-3-yl)-2-(methylamino)acetamide] | 5.01 to 50.1 | ≤ 5.01 | 5.01 to 50.1 | 5.01 to 50.1
5 | COc1cc(O)c(F)cc1-n1nc(C(=O)NCCCN(C)C)c2cnc(-c3cnn4cccnc34)cc21 [Example 88, N-(3-(dimethylamino)propyl)-1-(5-fluoro-4-hydroxy-2-methoxyphenyl)-6-(pyrazolo[1,5-a]pyrimidin-3-yl)-1H-pyrazolo[4,3-c]pyridine-3-carboxamide] | ≤ 5.01 | 5.01 to 50.1 | 5.01 to 50.1 | 5.01 to 50.1
6 | CNCc1nn(-c2cc(S(C)(=O)=O)ccc2OC)c2cc(-c3cnn4cccnc34)ncc12 [Example 89, 1-(1-(2-Methoxy-5-(methylsulfonyl)phenyl)-6-(pyrazolo[1,5-a]pyrimidin-3-yl)-1H-pyrazolo[4,3-c]pyridin-3-yl)-N-methylmethanamine] | 5.01 to 50.1 | 5.01 to 50.1 | > 50.1 | > 50.1
7 | COc1ccc(C(F)F)cc1-n1nc(C)c2cnc(Nc3ncc[nH]c3=O)cc21 [Example 91, 3-((1-(5-(difluoromethyl)-2-methoxyphenyl)-3-methyl-1H-pyrazolo[4,3-c]pyridin-6-yl)amino)pyrazin-2(1H)-one] | 5.01 to 50.1 | ≤ 5.01 | ≤ 5.01 | 5.01 to 50.1
8 | COCCSc1ccc(OC(F)F)c(-n2nc(C)c3cnc(Nc4ncc[nH]c4=O)cc32)c1 [Example 93, 3-((1-(2-(difluoromethoxy)-5-((2-methoxyethyl)thio)phenyl)-3-methyl-1H-pyrazolo[4,3-c]pyridin-6-yl)amino)pyrazin-2(1H)-one] | 5.01 to 50.1 | ≤ 5.01 | ≤ 5.01 | 5.01 to 50.1
9 | Cc1nn(-c2cc(S(C)(=O)=O)ccc2OC(F)F)c2cc(Nc3ncc[nH]c3=O)ncc12 [Example 94, 3-((1-(2-(difluoromethoxy)-5-(methylsulfonyl)phenyl)-3-methyl-1H-pyrazolo[4,3-c]pyridin-6-yl)amino)pyrazin-2(1H)-one] | ≤ 5.01 | ≤ 5.01 | ≤ 5.01 | 5.01 to 50.1
10 | COCCS(=O)(=O)c1ccc(OC(F)F)c(-n2nc(C)c3cnc(Nc4ncc[nH]c4=O)cc32)c1 [Example 95, 3-((1-(2-(difluoromethoxy)-5-((2-methoxyethyl)sulfonyl)phenyl)-3-methyl-1H-pyrazolo[4,3-c]pyridin-6-yl)amino)pyrazin-2(1H)-one] | 5.01 to 50.1 | ≤ 5.01 | ≤ 5.01 | 5.01 to 50.1
11 | Cc1nn(-c2cc(Cl)ccc2OC(F)F)c2cc(Nc3ncc[nH]c3=O)ncc12 [Example 99, 3-((1-(5-chloro-2-(difluoromethoxy)phenyl)-3-methyl-1H-pyrazolo[4,3-c]pyridin-6-yl)amino)pyrazin-2(1H)-one] | ≤ 5.01 | ≤ 5.01 | ≤ 5.01 | 5.01 to 50.1

Results, then the compound that gave them:

Row | IC50 (JAK 1) [nM] | IC50 (JAK 2) [nM] | IC50 (JAK 3) [nM] | IC50 (TYK2) [nM] | SMILES
12 | 5.01 to 50.1 | ≤ 5.01 | ≤ 5.01 | 5.01 to 50.1 | COc1ccc(F)cc1-n1nc(C)c2cnc(Nc3ncc[nH]c3=O)cc21 [Example 90, 3-((1-(5-Fluoro-2-methoxyphenyl)-3-methyl-1H-pyrazolo[4,3-c]pyridin-6-yl)amino)pyrazin-2(1H)-one]
13 | 5.01 to 50.1 | ≤ 5.01 | ≤ 5.01 | > 50.1 | COc1ccc(S(=O)(=O)NCCO)cc1-n1nc(C)c2cnc(Nc3ncc[nH]c3=O)cc21 [Example 92, N-(2-hydroxyethyl)-4-methoxy-3-(3-methyl-6-((3-oxo-3,4-dihydropyrazin-2-yl)amino)-1H-pyrazolo[4,3-c]pyridin-1-yl)benzenesulfonamide]
14 | 5.01 to 50.1 | 5.01 to 50.1 | 5.01 to 50.1 | 5.01 to 50.1 | COc1ccc(F)cc1-n1nc(C(=O)NCCCN(C)C)c2cnc(Nc3ncc[nH]c3=O)cc21 [Example 96, N-(3-(dimethylamino)propyl)-1-(5-fluoro-2-methoxyphenyl)-6-((3-oxo-3,4-dihydropyrazin-2-yl)amino)-1H-pyrazolo[4,3-c]pyridine-3-carboxamide]
15 | 5.01 to 50.1 | ≤ 5.01 | ≤ 5.01 | 5.01 to 50.1 | COc1ccc(F)cc1-n1nc(NCCCN(C)C)c2cnc(Nc3ncc[nH]c3=O)cc21 [Example 97, 3-((3-((3-(dimethylamino)propyl)amino)-1-(5-fluoro-2-methoxyphenyl)-1H-pyrazolo[4,3-c]pyridin-6-yl)amino)pyrazin-2(1H)-one]
16 | 5.01 to 50.1 | 5.01 to 50.1 | 5.01 to 50.1 | 5.01 to 50.1 | COc1ccc(C(F)F)cc1-n1nc(NCCN(C)C)c2cnc(Nc3ncc[nH]c3=O)cc21 [Example 98, 3-((1-(5-(difluoromethyl)-2-methoxyphenyl)-3-((2-(dimethylamino)ethyl)amino)-1H-pyrazolo[4,3-c]pyridin-6-yl)amino)pyrazin-2(1H)-one]
